Patent US6737383B1, “Herbicidal oxadiazolidines” (priority 1999, dated 2004)

Legend:
[1] = system: bedstraw; assay: Test B pre/postemergence bedstraw; assay type: in vivo, Galium aparine
Summary of the method: (§1)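 Test chemicals in a non-phytotoxic solvent mixture with surfactant were sprayed preemergence onto planted seeds and postemergence onto plants 2 to 18 cm tall (1- to 4-leaf stage). After twelve to sixteen days in a greenhouse, injury was visually rated against untreated controls from 0 (no effect) to 10 (complete control).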

[2] = system: blackgrass; assay: Test B pre/postemergence blackgrass; assay type: in vivo, Alopecurus myosuroides
Summary of the method: as §1

[3] = system: surinam grass; assay: Test B pre/postemergence surinam grass; assay type: in vivo, Brachiaria decumbens
Summary of the method: as §1

[4] = system: cocklebur; assay: Test B pre/postemergence cocklebur; assay type: in vivo, Xanthium strumarium
Summary of the method: as §1

[5] = system: corn; assay: Test B pre/postemergence corn; assay type: in vivo, Zea mays
Summary of the method: as §1

[6] = system: crabgrass; assay: Test B pre/postemergence crabgrass; assay type: in vivo, Digitaria sanguinalis
Summary of the method: as §1

[7] = system: giant foxtail; assay: Test B pre/postemergence giant foxtail; assay type: in vivo, Setaria faberii
Summary of the method: as §1

[8] = system: morningglory; assay: Test B pre/postemergence morningglory; assay type: in vivo, Ipomoea hederacea
Summary of the method: as §1

[9] = system: pigweed; assay: Test B pre/postemergence pigweed; assay type: in vivo, Amaranthus retroflexus
Summary of the method: as §1

[10] = system: rape; assay: Test B pre/postemergence rape; assay type: in vivo, Brassica napus
Summary of the method: as §1

[11] = system: soybean; assay: Test B pre/postemergence soybean; assay type: in vivo, Glycine max
Summary of the method: as §1

[12] = system: sugar beet; assay: Test B pre/postemergence sugar beet; assay type: in vivo, Beta vulgaris
Summary of the method: as §1

[13] = system: velvetleaf; assay: Test B pre/postemergence velvetleaf; assay type: in vivo, Abutilon theophrasti
Summary of the method: as §1

[14] = system: wheat; assay: Test B pre/postemergence wheat; assay type: in vivo, Triticum aestivum
Summary of the method: as §1

[15] = system: wild oat; assay: Test B pre/postemergence wild oat; assay type: in vivo, Avena fatua
Summary of the method: as §1

[16] = system: purple nutsedge; assay: Test B pre/postemergence purple nutsedge; assay type: in vivo, Cyperus rotundus
Summary of the method: as §1

[17] = Postemergence, Rate 62 g/ha, scale of 0 to 10, 0 is no effect, 10 is complete control
[18] = Postemergence, Rate 125 g/ha, scale 0 to 10, 0 is no effect, 10 is complete control
[19] = Postemergence, Rate 500 g/ha, scale 0 to 10, 0 is no effect, 10 is complete control
[20] = Preemergence, Rate 62 g/ha, scale 0 to 10 (0 no effect, 10 complete control)
[21] = Preemergence, Rate 125 g/ha, scale 0 to 10, 0 is no effect, 10 is complete control
[22] = Preemergence, Rate 500 g/ha, scale of 0 to 10 where 0 is no effect and 10 is complete control
[23] = Rate 250 g/ha, Postemergence, scale of 0 to 10 where 0 is no effect and 10 is complete control

SMILES: CC(Cl)=CCn1c(=O)on(C(=O)N(c2ccc(Cl)cc2)C(C)C)c1=O [Compound 544]
- Bedstraw plant response rating [1, 17]: 0
- Bedstraw plant response rating [1, 18]: 2
- Plant response rating, Bedstraw [1, 19]: 3
- Bedstraw plant response rating [1, 20]: 0
- Bedstraw plant response rating [1, 21]: 2
- Bedstraw plant response rating (0 to 10 scale) ([1]; Preemergence, Rate 250 g/ha): 7
- Bedstraw plant response rating [1, 22]: 9
- Plant response rating, Bedstraw [1, 23]: 2
- Blackgrass plant response rating [2, 17]: 0
- Blackgrass plant response rating [2, 18]: 0
- Plant response rating, Blackgrass [2, 19]: 3
- Blackgrass plant response rating [2, 20]: 0
- Blackgrass plant response rating [2, 21]: 0
- Blackgrass plant response rating (0 to 10 scale) ([2]; Preemergence, Rate 250 g/ha): 2
- Blackgrass plant response rating [2, 22]: 6
- Plant response rating, Blackgrass [2, 23]: 0
- B. signalgrass plant response rating [3, 17]: 0
- B. signalgrass plant response rating [3, 18]: 0
- Plant response rating, B. signalgrass [3, 19]: 3
- B. signalgrass plant response rating [3, 20]: 3
- B. signalgrass plant response rating [3, 21]: 3
- B. signalgrass plant response rating (0 to 10 scale, 0 is no effect, 10 is complete control) ([3]; Preemergence, Rate 250 g/ha): 6
- B. signalgrass plant response rating [3, 22]: 8
- Plant response rating, B. signalgrass [3, 23]: 0
- Cocklebur plant response rating [4, 17]: 3
- Cocklebur plant response rating [4, 18]: 3
- Plant response rating, Cocklebur [4, 19]: 3
- Cocklebur plant response rating [4, 20]: 0
- Cocklebur plant response rating (0 to 10 scale) ([4]; Preemergence, Rate 250 g/ha): 0
- Cocklebur plant response rating [4, 22]: 0
- Plant response rating, Cocklebur [4, 23]: 3
- Corn plant response rating [5, 17]: 0
- Corn plant response rating [5, 18]: 0
- Plant response rating, Corn [5, 19]: 0
- Corn plant response rating [5, 20]: 0
- Corn plant response rating [5, 21]: 0
- Corn plant response rating (0 to 10 scale) ([5]; Preemergence, Rate 250 g/ha): 0
- Corn plant response rating [5, 22]: 0
- Plant response rating, Corn [5, 23]: 0
- Crabgrass plant response rating [6, 17]: 0
- Crabgrass plant response rating [6, 18]: 8
- Plant response rating, Crabgrass [6, 19]: 9
- Crabgrass plant response rating [6, 20]: 9
- Crabgrass plant response rating [6, 21]: 9
- Crabgrass plant response rating (0 to 10 scale) ([6]; Preemergence, Rate 250 g/ha): 10
- Crabgrass plant response rating [6, 22]: 10
- Plant response rating, Crabgrass [6, 23]: 8
- Giant foxtail plant response rating [7, 17]: 0
- Giant foxtail plant response rating [7, 18]: 0
- Giant foxtail plant response rating [7, 20]: 9
- Giant foxtail plant response rating [7, 21]: 10
- Giant foxtail plant response rating (0 to 10 scale) ([7]; Preemergence, Rate 250 g/ha): 10
- Giant foxtail plant response rating [7, 22]: 10
- Plant response rating, Giant foxtail [7, 23]: 6
- Morningglory plant response rating [8, 17]: 3
- Morningglory plant response rating [8, 18]: 4
- Plant response rating, Morningglory [8, 19]: 10
- Morningglory plant response rating [8, 20]: 0
- Morningglory plant response rating [8, 21]: 0
- Morningglory plant response rating (0 to 10 scale) ([8]; Preemergence, Rate 250 g/ha): 0
- Morningglory plant response rating [8, 22]: 0
- Plant response rating, Morningglory [8, 23]: 10
- Redroot pigweed plant response rating [9, 17]: 0
- Redroot pigweed plant response rating [9, 18]: 0
- Plant response rating, Redroot pigweed [9, 19]: 2
- Redroot pigweed plant response rating [9, 20]: 3
- Redroot pigweed plant response rating [9, 21]: 3
- Redroot pigweed plant response rating (0 to 10 scale) ([9]; Preemergence, Rate 250 g/ha): 3
- Redroot pigweed plant response rating [9, 22]: 10
- Plant response rating, Redroot pigweed [9, 23]: 0
- Rape plant response rating [10, 17]: 0
- Rape plant response rating [10, 18]: 2
- Plant response rating, Rape [10, 19]: 3
- Rape plant response rating [10, 20]: 0
- Rape plant response rating [10, 21]: 0
- Rape plant response rating (0 to 10 scale) ([10]; Preemergence, Rate 250 g/ha): 3
- Rape plant response rating [10, 22]: 6
- Plant response rating, Rape [10, 23]: 2
- Soybean plant response rating [11, 17]: 0
- Soybean plant response rating [11, 18]: 2
- Plant response rating, Soybean [11, 19]: 2
- Soybean plant response rating [11, 20]: 0
- Soybean plant response rating [11, 21]: 0
- Soybean plant response rating (0 to 10 scale) ([11]; Preemergence, Rate 250 g/ha): 0
- Soybean plant response rating [11, 22]: 0
- Plant response rating, Soybean [11, 23]: 0
- Sugarbeets plant response rating [12, 17]: 0
- Sugarbeets plant response rating [12, 18]: 0
- Plant response rating, Sugarbeets [12, 19]: 3
- Sugarbeets plant response rating [12, 20]: 0
- Sugarbeets plant response rating [12, 21]: 0
- Sugarbeets plant response rating (0 to 10 scale) ([12]; Preemergence, Rate 250 g/ha): 0
- Sugarbeets plant response rating [12, 22]: 4
- Plant response rating, Sugarbeets [12, 23]: 1
- Velvetleaf plant response rating [13, 17]: 0
- Velvetleaf plant response rating [13, 18]: 0
- Plant response rating, Velvetleaf [13, 19]: 0
- Velvetleaf plant response rating [13, 20]: 0
- Velvetleaf plant response rating [13, 21]: 0
- Velvetleaf plant response rating (0 to 10 scale) ([13]; Preemergence, Rate 250 g/ha): 0
- Velvetleaf plant response rating [13, 22]: 0
- Plant response rating, Velvetleaf [13, 23]: 0
- Wheat plant response rating [14, 17]: 0
- Wheat plant response rating [14, 18]: 0
- Plant response rating, Wheat [14, 19]: 0
- Wheat plant response rating [14, 20]: 0
- Wheat plant response rating [14, 21]: 0
- Wheat plant response rating (0 to 10 scale) ([14]; Preemergence, Rate 250 g/ha): 0
- Wheat plant response rating [14, 22]: 0
- Plant response rating, Wheat [14, 23]: 0
- Wild oats plant response rating [15, 17]: 0
- Wild oats plant response rating [15, 18]: 0
- Plant response rating, Wild oats [15, 19]: 2
- Wild oats plant response rating [15, 20]: 0
- Wild oats plant response rating [15, 21]: 0
- Wild oats plant response rating (0 to 10 scale) ([15]; Preemergence, Rate 250 g/ha): 2
- Wild oats plant response rating [15, 22]: 4
- Plant response rating, Wild oats [15, 23]: 0
- Nutsedge plant response rating [16, 17]: 0
- Nutsedge plant response rating [16, 18]: 0
- Plant response rating, Nutsedge [16, 19]: 0
- Nutsedge plant response rating [16, 20]: 0
- Nutsedge plant response rating [16, 21]: 0
- Nutsedge plant response rating (0 to 10 scale) ([16]; Preemergence, Rate 250 g/ha): 0
- Nutsedge plant response rating [16, 22]: 0
- Plant response rating, Nutsedge [16, 23]: 0
